Experiment [1] has as its target T1, Tyrosine-protein kinase JAK3 (Homo sapiens, UniProt P52333).
T1 sequence (P52333 whole entry): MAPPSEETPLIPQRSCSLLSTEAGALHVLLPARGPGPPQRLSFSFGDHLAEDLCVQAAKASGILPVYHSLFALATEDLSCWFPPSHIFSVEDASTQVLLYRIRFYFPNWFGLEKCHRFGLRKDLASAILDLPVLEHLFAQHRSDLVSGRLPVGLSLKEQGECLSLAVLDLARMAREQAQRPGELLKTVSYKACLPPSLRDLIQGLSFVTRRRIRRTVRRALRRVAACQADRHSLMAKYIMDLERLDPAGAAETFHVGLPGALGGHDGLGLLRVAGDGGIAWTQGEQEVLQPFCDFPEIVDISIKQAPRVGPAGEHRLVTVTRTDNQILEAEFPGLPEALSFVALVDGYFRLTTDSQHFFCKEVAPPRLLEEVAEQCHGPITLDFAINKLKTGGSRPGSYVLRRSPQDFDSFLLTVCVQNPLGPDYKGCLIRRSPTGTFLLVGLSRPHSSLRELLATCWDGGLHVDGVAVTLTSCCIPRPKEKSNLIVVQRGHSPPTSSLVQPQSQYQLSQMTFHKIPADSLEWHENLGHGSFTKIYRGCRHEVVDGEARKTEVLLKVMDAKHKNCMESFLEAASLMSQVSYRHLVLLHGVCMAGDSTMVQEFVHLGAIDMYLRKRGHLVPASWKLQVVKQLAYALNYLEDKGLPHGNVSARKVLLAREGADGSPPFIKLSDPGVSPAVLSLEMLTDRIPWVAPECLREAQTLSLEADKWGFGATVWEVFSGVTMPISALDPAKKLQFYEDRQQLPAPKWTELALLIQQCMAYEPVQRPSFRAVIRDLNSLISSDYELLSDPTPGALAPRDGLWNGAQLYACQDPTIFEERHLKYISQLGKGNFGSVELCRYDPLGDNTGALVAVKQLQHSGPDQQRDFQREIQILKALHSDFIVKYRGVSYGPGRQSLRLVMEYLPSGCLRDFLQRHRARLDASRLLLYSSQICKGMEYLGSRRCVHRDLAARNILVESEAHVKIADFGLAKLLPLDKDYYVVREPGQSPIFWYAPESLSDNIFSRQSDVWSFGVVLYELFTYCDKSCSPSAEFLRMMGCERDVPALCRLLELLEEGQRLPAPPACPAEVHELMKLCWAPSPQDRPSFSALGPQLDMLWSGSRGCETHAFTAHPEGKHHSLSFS
In words: (§1) In Vitro Assay: NCEs were screened using in vitro JAK (1, 2 and 3) kinase assay on ADP Glo platform (Promega). Fixed amount of recombinant purified human JAK (25 ng of JAK1 and 10 ng of JAK2 and JAK3 per reaction, from Life Technologies Ltd) were incubated with increasing concentration of NCEs in 1× kinase reaction buffer (40 mM Tris-Cl, pH7.5, 20 mM MgCl2, 0.1 mg/ml BSA and 50 μM DTT). Enzymatic reaction was initiated by adding a substrate cocktail containing 50 μM of ATP (final concentration) and 5 μg for JAK1 and 2.5 μg for JAK2 and JAK3 of polyGln4Tyr1 (Signal Chem) in total 25 μl of reaction in 96 well plate. The reaction was incubated at room temperature for 1 hr.After 1 hr of incubation equal volume (25 μl per reaction) of ADP Glo was added and incubated at room temperature for 40 min.This was followed by addition of kinase detection reagent (50 μl per reaction) and incubation at room temperature for 30 min. Finally, plate was read for luminescence at an integration time of 500 millisecond per well. In general terms: ADP-Glo first removes unused ATP, then detects ADP through luciferase.

Experiment [2] has as its target Tyrosine-protein kinase JAK2 (Homo sapiens, UniProt O60674). The description is as §1.
Experiment [3] has as its target Tyrosine-protein kinase JAK1 (Homo sapiens, UniProt P23458). Described as §1.

A word on the IC50: it is the concentration that gives 50% inhibition.

Tyrosine-protein kinase JAK2, sequence (O60674 whole entry): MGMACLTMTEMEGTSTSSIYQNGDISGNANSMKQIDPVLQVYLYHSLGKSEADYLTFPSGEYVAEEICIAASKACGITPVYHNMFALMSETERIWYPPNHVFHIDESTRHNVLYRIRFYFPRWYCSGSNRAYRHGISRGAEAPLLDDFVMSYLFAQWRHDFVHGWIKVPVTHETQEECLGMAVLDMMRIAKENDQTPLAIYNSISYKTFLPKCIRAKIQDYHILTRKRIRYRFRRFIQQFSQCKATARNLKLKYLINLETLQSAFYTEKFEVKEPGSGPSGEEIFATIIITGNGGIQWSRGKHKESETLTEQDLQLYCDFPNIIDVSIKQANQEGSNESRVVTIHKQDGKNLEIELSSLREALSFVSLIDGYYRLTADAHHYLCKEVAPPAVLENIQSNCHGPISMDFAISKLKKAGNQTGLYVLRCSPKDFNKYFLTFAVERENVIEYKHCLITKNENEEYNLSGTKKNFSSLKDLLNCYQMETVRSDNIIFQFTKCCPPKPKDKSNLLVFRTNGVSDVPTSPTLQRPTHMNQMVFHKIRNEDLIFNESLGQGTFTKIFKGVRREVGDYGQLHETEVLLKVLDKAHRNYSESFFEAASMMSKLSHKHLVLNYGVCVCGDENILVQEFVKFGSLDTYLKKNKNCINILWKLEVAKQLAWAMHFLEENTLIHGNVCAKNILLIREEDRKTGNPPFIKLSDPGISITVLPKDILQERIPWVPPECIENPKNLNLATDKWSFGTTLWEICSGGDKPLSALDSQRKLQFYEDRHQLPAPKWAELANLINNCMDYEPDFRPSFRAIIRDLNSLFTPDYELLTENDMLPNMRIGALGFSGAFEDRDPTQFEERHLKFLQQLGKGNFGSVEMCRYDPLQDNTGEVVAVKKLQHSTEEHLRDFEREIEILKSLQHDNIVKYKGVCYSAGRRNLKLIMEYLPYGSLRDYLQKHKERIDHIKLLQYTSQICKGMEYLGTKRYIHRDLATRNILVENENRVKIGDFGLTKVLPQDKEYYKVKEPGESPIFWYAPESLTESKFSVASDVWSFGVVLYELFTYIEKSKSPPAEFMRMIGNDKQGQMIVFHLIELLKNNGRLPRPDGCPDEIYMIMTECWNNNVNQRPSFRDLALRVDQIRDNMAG
Tyrosine-protein kinase JAK1, sequence (P23458 whole entry): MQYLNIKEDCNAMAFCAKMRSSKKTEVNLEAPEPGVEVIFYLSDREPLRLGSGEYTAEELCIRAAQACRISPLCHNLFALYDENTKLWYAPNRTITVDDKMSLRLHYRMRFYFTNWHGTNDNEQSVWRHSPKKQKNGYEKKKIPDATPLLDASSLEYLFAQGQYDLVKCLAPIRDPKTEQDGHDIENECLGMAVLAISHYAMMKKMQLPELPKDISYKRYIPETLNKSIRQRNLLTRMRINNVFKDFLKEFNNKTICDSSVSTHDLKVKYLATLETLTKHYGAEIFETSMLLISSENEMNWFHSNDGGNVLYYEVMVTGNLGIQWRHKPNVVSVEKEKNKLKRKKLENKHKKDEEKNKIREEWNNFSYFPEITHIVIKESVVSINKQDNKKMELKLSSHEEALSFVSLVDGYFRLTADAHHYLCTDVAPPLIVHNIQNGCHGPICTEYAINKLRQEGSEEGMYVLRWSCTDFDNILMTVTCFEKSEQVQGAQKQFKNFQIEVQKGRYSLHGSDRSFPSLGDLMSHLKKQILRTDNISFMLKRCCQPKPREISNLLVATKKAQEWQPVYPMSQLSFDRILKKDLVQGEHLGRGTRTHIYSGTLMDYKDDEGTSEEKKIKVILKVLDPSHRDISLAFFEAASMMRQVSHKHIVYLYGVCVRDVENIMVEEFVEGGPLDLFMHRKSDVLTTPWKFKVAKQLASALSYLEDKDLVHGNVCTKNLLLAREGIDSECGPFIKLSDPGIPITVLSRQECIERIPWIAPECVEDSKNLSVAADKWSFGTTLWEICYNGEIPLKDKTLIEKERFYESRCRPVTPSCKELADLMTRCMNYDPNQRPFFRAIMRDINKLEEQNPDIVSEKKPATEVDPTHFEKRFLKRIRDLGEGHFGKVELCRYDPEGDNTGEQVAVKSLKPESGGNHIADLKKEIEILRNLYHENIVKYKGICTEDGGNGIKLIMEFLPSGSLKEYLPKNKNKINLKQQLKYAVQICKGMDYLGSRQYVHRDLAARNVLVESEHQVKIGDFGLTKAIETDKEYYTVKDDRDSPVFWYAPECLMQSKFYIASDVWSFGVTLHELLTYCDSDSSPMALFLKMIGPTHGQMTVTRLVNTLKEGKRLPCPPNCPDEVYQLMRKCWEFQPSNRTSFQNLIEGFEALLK

Take `N#CCNC(=O)c1ccc(-c2ccnc(Nc3ccc(N4CCC(N5CCOCC5)CC4)cc3)n2)cc1`: the IC50 in experiment [1] amounted to 62.3 nM; in experiment [2] it was 6.6 nM; in experiment [3], 11.7 nM.
The corresponding values for `N#CCNC(=O)c1ccc(-c2nc(Nc3ccc(N4CCC(N5CCOCC5)CC4)cc3)ncc2F)cc1` are 16.6 nM, 4.9 nM and 6.7 nM.
The like results for `N#CCNC(=O)c1ccc(-c2ccnc(Nc3ccc(N4CCC(C5=NCCN5)CC4)cc3)n2)cc1` were, in that order, 124 nM, 20 nM and 13 nM.
